Measurements taken from patent US8426442B2, “Compounds” (Xention Ltd, priority 2009, dated 2013).

Experiments:
hKv1.5 = hKv1.5 (Homo sapiens, UniProt P22460); assay: hKv1.5 % inhibition; assay type: cell-based; conditions: for inhibition at 0.3 µM: read-out: hKv1.5 % inh. 300 nM
hKv1.3 = hKv1.3 (Homo sapiens, UniProt P22001); assay: hKv1.3 % inhibition; assay type: cell-based; conditions: for inhibition at 1 µM: read-out: hKv1.3 % inh. 1 uM
hKv1.3, sequence (P22001 whole entry): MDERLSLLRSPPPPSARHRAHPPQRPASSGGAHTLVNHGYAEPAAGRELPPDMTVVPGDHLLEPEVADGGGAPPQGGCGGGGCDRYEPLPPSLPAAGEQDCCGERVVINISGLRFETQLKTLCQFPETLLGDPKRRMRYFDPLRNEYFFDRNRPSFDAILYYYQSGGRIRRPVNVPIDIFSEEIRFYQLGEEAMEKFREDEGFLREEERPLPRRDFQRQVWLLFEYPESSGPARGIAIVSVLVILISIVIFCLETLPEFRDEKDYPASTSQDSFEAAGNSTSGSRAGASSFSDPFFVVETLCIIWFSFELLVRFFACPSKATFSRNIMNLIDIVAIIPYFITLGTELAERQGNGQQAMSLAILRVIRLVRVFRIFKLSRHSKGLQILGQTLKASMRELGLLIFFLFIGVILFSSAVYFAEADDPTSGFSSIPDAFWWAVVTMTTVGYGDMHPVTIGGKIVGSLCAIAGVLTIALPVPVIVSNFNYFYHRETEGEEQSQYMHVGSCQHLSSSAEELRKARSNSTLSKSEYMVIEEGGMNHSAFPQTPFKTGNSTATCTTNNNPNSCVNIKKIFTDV

hKv1.5, sequence (P22460 whole entry): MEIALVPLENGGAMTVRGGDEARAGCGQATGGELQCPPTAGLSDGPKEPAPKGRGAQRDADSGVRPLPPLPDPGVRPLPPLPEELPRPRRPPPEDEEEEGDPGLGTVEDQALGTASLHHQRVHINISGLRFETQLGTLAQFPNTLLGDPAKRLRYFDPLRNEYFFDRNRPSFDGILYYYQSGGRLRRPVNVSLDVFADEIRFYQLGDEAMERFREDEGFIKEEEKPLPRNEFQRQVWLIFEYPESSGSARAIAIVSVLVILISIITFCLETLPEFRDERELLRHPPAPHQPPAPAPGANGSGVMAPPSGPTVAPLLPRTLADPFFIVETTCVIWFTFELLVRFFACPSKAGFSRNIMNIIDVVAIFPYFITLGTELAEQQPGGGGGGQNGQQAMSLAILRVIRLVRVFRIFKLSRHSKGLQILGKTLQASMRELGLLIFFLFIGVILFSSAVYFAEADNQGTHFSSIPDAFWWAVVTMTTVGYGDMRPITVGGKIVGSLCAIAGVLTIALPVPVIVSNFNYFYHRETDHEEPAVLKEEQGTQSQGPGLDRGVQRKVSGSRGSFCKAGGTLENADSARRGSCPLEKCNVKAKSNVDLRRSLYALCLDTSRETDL

Compound | inhibition at 0.3 µM (hKv1.5) | inhibition at 1 µM (hKv1.3) | hKv1.5 % inh. 300 nM (hKv1.5) | hKv1.3 % inh. 1 uM (hKv1.3)
1-Methyl-1H-pyrazole-3-sulfonic acid benzyl-[2-(pyridine-2-carbonyl)-1,2,3,4-tetrahydro-isoquinolin-6-yl]-amide [Example 17] |  |  | 36.7% | 54.8%
1-Methyl-1H-pyrazole-3-sulfonic acid benzyl-[2-(2-cyano-acetyl)-1,2,3,4-tetrahydro-isoquinolin-6-yl]-amide [Example 9] |  |  | 27.6% | 71.6%
1-Methyl-1H-pyrazole-3-sulfonic acid (4-chloro-benzyl)-[1-(3-methoxy-propionyl)-2,3-dihydro-1H-indol-6-yl]-amide [Example 2] |  |  |  | 99.1%
CC(=O)N1CCc2ccc(N(Cc3ccc(Cl)cc3)S(=O)(=O)c3ccn(C)n3)cc21 [Example 3, 1-Methyl-1H-pyrazole-3-sulfonic acid (1-acetyl-2,3-dihydro-1H-indol-6-yl)-(4-chloro-benzyl)-amide] | 89.5% | 98% |  | 
1-Methyl-1H-pyrazole-3-sulfonic acid benzyl-[2-(3-methoxy-propionyl)-1,2,3,4-tetrahydro-isoquinolin-6-yl]-amide [Example 12] |  |  | 41.7% | 64.3%
CC(=O)N1CCc2cc(N(Cc3ccccc3)S(=O)(=O)c3ccn(C)n3)ccc2C1 [Example 10, 1-Methyl-1H-pyrazole-3-sulfonic acid (2-acetyl-1,2,3,4-tetrahydro-isoquinolin-6-yl)-benzyl-amide] | 37.5% | 67.2% |  | 
1-Methyl-1H-pyrazole-3-sulfonic acid benzyl-[2-(2-methoxy-acetyl)-1,2,3,4-tetrahydro-isoquinolin-6-yl]-amide [Example 18] |  |  | 34.6% | 51.1%
CC(=O)N1CCc2cc(N(Cc3ccc(Cl)cc3)S(=O)(=O)c3cn(C)cn3)ccc2C1 [Example 8, 1-Methyl-1H-imidazole-4-sulfonic acid(2-acetyl-1,2,3,4-tetrahydro-isoquinolin-6-yl)-(4-chlorobenzyl)-amide] |  |  | 25.2% | 73.3%
Cn1ccc(S(=O)(=O)N(Cc2ccc(Cl)cc2)c2ccc3c(c2)CCN3C(=O)CC#N)n1 [Example 7, 1-Methyl-1H-pyrazole-3-sulfonic acid (4-chloro-benzyl)-[1-(2-cyano-acetyl)-2,3-dihydro-1H-indol-5-yl]-amide] | 48.3% | 77.2% |  | 

Now from value to compound, other results behind:

inhibition at 0.3 µM (hKv1.5) | inhibition at 1 µM (hKv1.3) | Compound | hKv1.5 % inh. 300 nM (hKv1.5) | hKv1.3 % inh. 1 uM (hKv1.3)
32.1% | 62.7% | COCC(=O)N1CCc2cc(N(Cc3ccc(Cl)cc3)S(=O)(=O)c3cn(C)cn3)ccc2C1 [Example 14, 1-Methyl-1H-imidazole-4-sulfonic acid (4-chloro-benzyl)-[2-(2-methoxy-acetyl)-1,2,3,4-tetrahydro-isoquinolin-6-yl]-amide] |  | 
66.6% | 64.2% | COCC(=O)N1CCc2cc(N(Cc3ccc(Cl)cc3)S(=O)(=O)c3ccn(C)n3)ccc21 [Example 13, 1-Methyl-1H-pyrazole-3-sulfonic acid (4-chloro-benzyl)-[1-(2-methoxy-acetyl)-2,3-dihydro-1H-indol-5-yl]-amide] |  | 
37.1% | 85.4% | Cn1cnc(S(=O)(=O)N(Cc2ccc(Cl)cc2)c2ccc3c(c2)NCC3)c1 [Example 6, 1-Methyl-1H-imidazole-4-sulfonic acid (4-chloro-benzyl)-(2,3-dihydro-1H-indol-6-yl)-amide] |  | 
92.1% | 100% | COCC(=O)N1CCc2ccc(N(Cc3ccc(Cl)cc3)S(=O)(=O)c3ccn(C)n3)cc21 [Example 1, 1-Methyl-1H-pyrazole-3-sulfonic acid (4-chloro-benzyl)-[1-(2-methoxy-acetyl)-2,3-dihydro-1H-indol-6-yl]-amide] |  | 
13.4% | 48.5% | Cn1cnc(S(=O)(=O)N(Cc2ccc(Cl)cc2)c2ccc3c(c2)CCN(C(=O)CC#N)C3)c1 [Example 20, 1-Methyl-1H-imidazole-4-sulfonic acid (4-chloro-benzyl)-[2-(2-cyano-acetyl)-1,2,3,4-tetrahydro-isoquinolin-6-yl]-amide] |  | 
20.5% | 61.1% | Cn1cnc(S(=O)(=O)N(Cc2ccc(Cl)cc2)c2ccc3c(c2)CCN3)c1 [Example 15, 1-Methyl-1H-imidazole-4-sulfonic acid (4-chloro-benzyl)-(2,3-dihydro-1H-indol-5-yl)-amide] |  | 
86.1% | 91.3% | CC(=O)N1CCc2cc(N(Cc3ccc(Cl)cc3)S(=O)(=O)c3ccn(C)n3)ccc21 [Example 4, 1-Methyl-1H-pyrazole-3-sulfonic acid (1-acetyl-2,3-dihydro-1H-indol-5-yl)-(4-chloro-benzyl)-amide] |  | 
65.2% | 90.7% | COCCC(=O)N1CCc2cc(N(Cc3ccc(Cl)cc3)S(=O)(=O)c3ccn(C)n3)ccc21 [Example 5, 1-Methyl-1H-pyrazole-3-sulfonic acid (4-chloro-benzyl)-[1-(3-methoxy-propionyl)-2,3-dihydro-1H-indol-5-yl]-amide] |  | 
20.9% | 65.6% | COCCC(=O)N1CCc2ccc(N(Cc3ccc(Cl)cc3)S(=O)(=O)c3cn(C)cn3)cc21 [Example 11, 1-Methyl-1H-imidazole-4-sulfonic acid (4-chloro-benzyl)-[1-(3-methoxy-propionyl)-2,3-dihydro-1H-indol-6-yl]-amide] |  | 
16.2% | 49.5% | Cn1cnc(S(=O)(=O)N(Cc2ccc(Cl)cc2)c2ccc3c(c2)CCN(C(=O)CO)C3)c1 [Example 19, 1-Methyl-1H-imidazole-4-sulfonic acid (4-chloro-benzyl)-[2-(2-hydroxy-acetyl)-1,2,3,4-tetrahydro-isoquinolin-6-yl]-amide] |  | 
32.2% | 57.5% | COCCC(=O)N1CCc2cc(N(Cc3ccc(Cl)cc3)S(=O)(=O)c3cn(C)cn3)ccc2C1 [Example 16, 1-Methyl-1H-imidazole-4-sulfonic acid (4-chloro-benzyl)-[2-(3-methoxy-propionyl)-1,2,3,4-tetrahydro-isoquinolin-6-yl]-amide] |  | 
